Consider three compounds from US8143222B2, “Modular platform for targeted therapeutic delivery” (Washington University, priority 2007, dated 2012).

The test system of assay [1] is human pancreatic cancer cell lines. As to the kind of experiment: S2-BH3 apoptosis in human pancreatic cancer cell lines. It is filed as cell-based. As to conditions: up to 10 μM. Here is the method:
(§1) Tumor Cells are seeded at a density of 0.2 to 0.5×10^6 cells per mL in 12-well plates and incubated at 37° C. for at least 24 hours (murine cancer cells) or 48 hours (Human cancer cells). After incubation, S2-fusion protein is added to the cell culture medium. The cells are then incubated for 18 hours (active caspase 3) or 24 hours (TUNEL) at 37° C. in humidified 5% CO2. Apoptosis is detected by FACS analysis after staining cells for active caspase-3 (Cell Signaling, Boston, Mass.) or with the APO-BRDU kit (Phenix Flow Systems, San Diego, Calif.). Briefly, cells are washed with PBS, treated with trypsin-EDTA to remove adhesion molecules, and washed again. After centrifugation at 1,200 rpm for 10 min, cells are fixed with 1% paraformaldehyde and washed with PBS. After centrifugation at 1,800 rpm for 10 min, cells are fixed with 90% methanol at −20° C. and washed with PBS. Each pellet is resuspended in 1:100 anti-active caspase-3 antibody (1 μg/ml caspase 3, PBS with 5% FBS) or Br-duTP with TdT, and incubated overnight at 4° C. […] Cell fluorescence signals is determined using a FACScan flow cytometer (BD Biosciences) and analyzed with CellQuest software (BD Biosciences) to measure the percentage of apoptotic cells. […]

Assay [2] relates to murine pancreatic cancer cell lines. As to the kind of experiment: S2-BH3 apoptosis in murine pancreatic cancer cell lines. The class given is cell-based. The following applies: up to 10 μM. Here is the method:
as §1

Assay [3] deals with established murine pancreas cancers. In words: systemic (intraperitoneal) S2-BH3 in mice with established pancreas cancers. The following applies: seven intraperitoneal doses over 14 days.
Procedure: The intradermal location is used to facilitate accurate tumor measurements. Tumor diameter is measured with calipers every two days in two dimensions and the data are recorded. Mice are euthanized when the tumors reach 2 cm or ulcerate. In the subcutaneous model, 100,000 Panc-02 cells are utilized.
In these experiments, we have completed the first in vivo administration of our novel therapeutic.
The next assay concerns pancreas cancer cells. In words: TAT-CTMP with radiation, apoptosis. The class given is cell-based. As to conditions: cotreatment with radiation. An excerpt: CTMP binds to the C-terminal regulatory domain of Akt, inhibiting phosphorylation of Ser^473 and activation of Akt, and thereby promotes apoptosis. CTMP is highly conserved between mouse and human (85% of the residues are identical or conservative replacements) and has two functional domains, a highly structured N-terminal domain and a C-terminal thioesterase domain. Within the N-terminal domain there are four peptides that have structural elements that meet the criteria described by Maira et al (Science 294: 374-380, 2001) as mediating the interaction with Akt. In these experiments, we synthesized TAT-fusion peptides of each of these four domains and screened them for their ability to induce apoptosis in pancreas cancer cells. […] In FIG. 4, the left panel (A), presents a helical wheel diagram (Schiffer, M. and Edmundson, A. B., Biophys. J. 7, 121-135, 1967) of the active domain of CTMP. […] Furthermore, cotreatment with TAT-CTMP4 and radiation results in increased apoptosis (FIG. 4, right panel).

The next assay concerns AsPC-1. As to the kind of experiment: Tat-CTMP with gemcitabine, % active caspase-3 by flow cytometry. The class given is cell-based, human. As to conditions: in the presence of gemcitabine (30 nM); 24 hours. The procedure: In these experiments, a combination of gemcitabine, a commonly-used chemotherapeutic drug for pancreas cancer and Tat-CTMP were tested in our in vitro model. In this study, two human pancreas adenocarcinoma cell lines (Panc-1 and AsPC-1) were treated with TAT-CTMP and TAT-CTMP in the presence and absence of gemcitabine (30 nM). […] Cells were subsequently harvested and % active caspase-3 was assessed by flow cytometry. Each experimental group represents an n=3. […] This experiment was repeated twice with multiple murine and human lines with similar results. (B and C) Antitumor effects of CTMP4 are the result of inhibition of Akt3 and its downstream effectors. […] Samples were treated for 1 hour prior to preparation of cell lysates. Immunoblots were subsequently prepared and stained with (B) anti-total AKT and phospho-AKT ([…]) and (C) anti-total GSK-3β and phospho GSK-3β.
A general note: In flow cytometry, cells or beads pass a laser one at a time.

Assay [4] has as its system murine pancreas cancer cells. In words: apoptosis screen of TAT-CTMP fusion peptides, murine cells. It is filed as cell-based. Here is the method:
as §1

Assay [5] deals with human pancreas cancer cells. In words: apoptosis screen of TAT-CTMP fusion peptides, human cells. It is filed as cell-based. The procedure:
as §1

For another assay, the system named is Akt. In words: Western blot of phospho-Akt (Ser-473) in cell lysates. It is filed as cell-based, human. As to conditions: Panc-1; one hour after treatment; wortmannin 1 μM, TAT-CTMP 10 μM. The procedure: In addition we looked at down stream effector GSK-3β using antibodies directed at GSK-3β and phospho GSK-3β.
Cells were subsequently harvested and % active caspase-3 was assessed by flow cytometry. Each experimental group represents an n=3. […] This experiment was repeated twice with multiple murine and human lines with similar results. (B and C) Antitumor effects of CTMP4 are the result of inhibition of Akt3 and its downstream effectors. […] Samples were treated for 1 hour prior to preparation of cell lysates. Immunoblots were subsequently prepared and stained with (B) anti-total AKT and phospho-AKT (Ser^473) and (C) anti-total GSK-3β and phospho GSK-3β.

No end group written: not given here.

Consider `COc1ccc(C)cc1NC(=O)OC1C[C@H]2CCC[C@@H](C1)N2CCCCCCN` (some centres unmarked) [SV119], for which the apoptosis entry in assay [1] is recorded as “low, concentration-dependent level of apoptosis”; in assay [2], “low, concentration-dependent level of apoptosis”.
As for “S2-BH3-in: control peptide: SW141 sigma-2 amino acid coupled to mutated inactive BH3 sequence EIWIAQEARRIGAEFNAYYAR (SEQ ID NO: 3) (also: SW141 sigma-2 ligand conjugated; listed as Homo sapiens)”, the apoptosis entry in assay [1] and in assay [2] was “no appreciable apoptosis” throughout. Besides, the tumor growth rate result in assay [3] (400 μg) is listed as “not”. The “Median Survival” value in assay [3] (n = 12 mice per group) was found to be 35 days.
In the case of “TAT-CTMP: TAT-fusion peptide of the active N-terminal domain peptide CTMP4 of CTMP (YGRKKRRQRRRLDPKLMKEEQMSQAQLFTRSFDDGL)”, the radiation-induced apoptosis entry in the assay on pancreas cancer cells is on record as “sensitizes pancreas cancer cells to radiation-induced apoptosis in a dose dependent fashion”. Further, the “apoptosis (% active caspase-3)” value with AsPC-1 is reported as “additive increase in apoptosis”. In addition, the apoptosis result in assay [4] and in assay [5] was “induced appreciable apoptosis” each time. Besides, in the assay with Akt, the “active phospho-AKT (Ser-473)” value was “decreased active phospho-AKT”.
